16 molecules from US8084621B2, “3-Pyrrolo[b]cyclohexylene-2-dihydroindolinone derivatives and uses thereof” (Jiangsu Simcere Pharmaceutical R&D Co. Ltd., priority 2006, dated 2011) can be followed below.

In general, inhibition refers to the drop in the measured response relative to a control, in per cent. One may read the IC50 as the concentration at which inhibition is half-maximal. A lower IC50 goes with higher potency.

Type in all cases: cell-based
Assay [1] deals with Human Bladder Cancer Cell Line (T24). Put plainly: Tumor cell proliferation assay (MTT), T24. The note with it: for inhibition at 10 µM: concentration of 10^−5 mol/L, preliminary screening, 72 hours, read-out: Inhibition rate % T24; for IC50: secondary screening, 48 hours. An excerpt:
(§1) The assay used generally is the blue tetrazolium bromide (MTT) method. […] The amount of formazan can be detected by the microplate reader through the absorption value at 570 nm. The amount of formazan product generated is proportional to the number of living cells in the sample, so the OD value may reflect the number of living cells and the ability of a test drug to inhibit or kill cells. The MTT assay may be used in determining the ability of different compounds of the present invention to inhibit one or more cancer cells proliferation. Similar assays can be designed along the same lines for any cancer cell using techniques well known in the art.
(§2) The assay used generally is the blue tetrazolium bromide (MTT) method. […] Intracellular purple formazan salt crystals can be solved in DMSO and the absorption value at 570 nm is detected by the microplate reader, then the number of living cells can be detected indirectly. So MTT assay may be used to determine the ability of a compound of the present invention to inhibit cell proliferation. Similar assays can be designed along the same lines for any cancer cell using techniques well known in the art.
2.2.7 Human Bladder Cancer Cell Line (T24);
The cells of 2.2.6, 2.2.7 cultured in RPMI 1640 medium containing 12% fetal bovine serum in the condition of 37° C., 5% CO2.
(§3) 2.3.1 Cell seeding: Trypsinize the cell by 0.05% trypsin-EDTA and add RPMI 1640 medium (DMEM or 5A) containing 12% calf serum. Count the number, then dilute to 1.67×10^4/ml. Add 180 ul/well to the 96 well plate (3000 cells/well).
(§4) 2.3.2 Culture: cells are incubated for 24 hours at 37° C. under 5% CO2.
(§5) 2.3.3 Preliminary screening: The compounds are firstly diluted to 0.1 mol/L with DMSO, and then diluted to three concentrations of 10^−5 mol/L, 10^−6 mol/L and 10^−7 mol/L. Add 20 ul test compounds to the 96 well plate and incubate for 72 hours. Each group has three parallel wells and all experiments repeat three times. Each inhibition ratio is calculated, then an average value of three times is taken as the measured value. 2.3.4 Staining 2.3.4.1 Attached cell: add 20 ul/well MTT to the 96-well plates; incubate for 4 hours in the incubator. Pour out the culture medium in the well and add 100 ul/well DMSO. Shake the plate for 5 min. 2.3.4.2 Suspension cell: add 20 ul/well MTT to the 96-well plates; incubate for 4 hours in the incubator. Add 50 ul/well 20% SDS and incubate for overnight in the incubator. 2.3.5 Reading the plates: read the absorbance A570-A630 with the Infinite M200 microtiter plate reader. Calculate the inhibition ratio of the test compounds. 2.3.6 Secondary screening: the compounds whose inhibition ratio is greater than 50% at the concentrations of 10^−5 mol/L in the preliminary screening will be picked out for Secondary screening. Dilute these compounds to ten concentrations: 10^−5 mol/L, 0.5×10^−5 mol/L, 10^−6 mol/L, 0.8×10^−6 mol/L, 0.6×10^−6 mol/L, 0.4×10^−6 mol/L, 0.2×10^−6 mol/L, 10^−7 mol/L, 0.8×10^−7 mol/L and 0.4×10^−7 mol/L. Add 20 ul test compound solution to the 96 well plate and incubate for 48 hours. Each group has three parallel wells and all experiments repeat for three times. Read the plates and calculate the inhibition ratio according to the preliminary screening method. 2.3.7 Calculate the Inhibition Ratio of Cell Proliferation and the IC50
(§6) According to the inhibition ratio of cell proliferation at the different concentrations of the compound, inhibition ratio of 50% of the test compound is calculated through the logarithm of the concentration of the compound with the Logit [I] linear regression, and an average value of three times is taken as the measured value of a sample.

Assay [2] relates to Human Colon Cancer Cell Line (HCT 116). Put plainly: Tumor cell proliferation assay (MTT), HCT116. Conditions: concentration of 10^−5 mol/L, preliminary screening, 72 hours, read-out: Inhibition rate % HCT116.
Text: as §1, §2
2.2.12 Human Colon Cancer Cell Line (HCT 116);
The cells of 2.2.11, 2.2.12, 2.2.13 were cultured in MC COYS 5-A medium containing 12% fetal bovine serum in the condition of 37° C., 5% CO2.
as §3, §4, §5, §6

For assay [3], the system named is Human Hepatocellular Carcinoma Cell Line (HEPG2). The assay can be described thus: Tumor cell proliferation assay (MTT), HEPG2. The note with it: for inhibition at 10 µM: concentration of 10^−5 mol/L, preliminary screening, 72 hours, read-out: Inhibition rate % HEPG2; for IC50: secondary screening, 48 hours.
Text: as §1, §2
2.2.8 Human Hepatocellular Carcinoma Cell Line (HEPG2);
The cells of 2.2.8, 2.2.9 cultured in DMEM/High glucose medium containing 12% calf serum in the condition of 37° C., 5% CO2.
as §3, §4, §5, §6

Assay [4] has as its system Human Small Cell Lung Cancer Cell Line (NCI-H446). Put plainly: Tumor cell proliferation assay (MTT), NCI-H446. The note with it: for inhibition at 10 µM: concentration of 10^−5 mol/L, preliminary screening, 72 hours, read-out: Inhibition rate % NCI-H446; for IC50: secondary screening, 48 hours.

On to `CCN(CC)CCNC(=O)c1c(C)[nH]c2c1CCC/C2=C1/C(=O)Nc2ccc(F)cc21` [I-2, N-(2-(diethylamino)ethyl)-2-methyl-7-[1,2-dihydro-5-fluoro-2-oxo-3H-indol-(Z)-3-ylidene]-4,5,6,7-tetrahydro-1H-indole-3-carboxamide], for which the results for the inhibition at 10 µM in assay [1], in assay [2] and in assay [3] were 81.4%, 99.4% and 64%, respectively. Further, the half-maximal inhibitory concentration (IC50) in assay [1] turned out to be 3.31 µM; in assay [3], 7.27 µM.
With `CCN(CC)CCNC(=O)c1c(C)[nH]c2c1CCC/C2=C1/C(=O)Nc2ccc(Cl)cc21` [I-3, N-(2-(diethylamino)ethyl)-2-methyl-7-[1,2-dihydro-5-chloro-2-oxo-3H-indol-(Z)-3-ylidene]-4,5,6,7-tetrahydro-1H-indole-3-carboxamide], the inhibition at 10 µM stood at 98.1% in assay [1], 98.2% in assay [3] and 69.9% in assay [4]. The values for the IC50 in assay [1], in assay [3] and in assay [4] were 1.83 µM, 3.14 µM and 6.47 µM, respectively.
For `CCN(CC)CCNC(=O)c1c(C)[nH]c2c1CCC/C2=C1/C(=O)Nc2ccc(C)cc21` [I-4, N-(2-(diethylamino)ethyl)-2-methyl-7-[1,2-dihydro-5-methyl-2-oxo-3H-indol-(Z)-3-ylidene]-4,5,6,7-tetrahydro-1H-indole-3-carboxamide], in assay [4], the inhibition at 10 µM was found to be 57.7% and the midpoint of inhibition, the IC50, lay at 5.17 µM.
Turning to `CCN(CC)CCNC(=O)c1c(C)[nH]c2c1CCC/C2=C1/C(=O)Nc2ccccc21` [I-5, N-(2-(diethylamino)ethyl)-2-methyl-7-[1,2-dihydro-2-oxo-3H-indol-(Z)-3-ylidene]-4,5,6,7-tetrahydro-1H-indole-3-carboxamide], the figures for the inhibition at 10 µM in assay [1], in assay [2] and in assay [3] were 74.5%, 99.9% and 64.6%, respectively. The figures for the half-inhibitory concentration (IC50) in assay [1] and in assay [3] were 3.56 µM and 7.73 µM, respectively.
For `Cc1[nH]c2c(c1C(=O)NCCN(C)C)CCC/C2=C1/C(=O)Nc2ccc(F)cc21` [I-6, N-(2-(dimethylamino)ethyl)-2-methyl-7-[1,2-dihydro-5-fluoro-2-oxo-3H-indol-(Z)-3-ylidene]-4,5,6,7-tetrahydro-1H-indole-3-carboxamide], in assay [4], the inhibition at 10 µM turned out to be 27.1%.
For `Cc1[nH]c2c(c1C(=O)NCCCN(C)C)CCC/C2=C1/C(=O)Nc2ccc(Cl)cc21` [I-7, N-(3-(dimethylamino)propyl)-2-methyl-7-[1,2-dihydro-5-chloro-2-oxo-3H-indol-(Z)-3-ylidene]-4,5,6,7-tetrahydro-1H-indole-3-carboxamide], in assay [4], the inhibition at 10 µM was found to be 62.7% and the concentration for half-maximal inhibition (IC50) came to 5.99 µM.
For the molecule `Cc1[nH]c2c(c1C(=O)NCCO)CCC/C2=C1/C(=O)Nc2ccccc21` [I-8, N-(2-hydroxyethyl)-2-methyl-7-[1,2-dihydro-2-oxo-3H-indol-(Z)-3-ylidene]-4,5,6,7-tetrahydro-1H-indole-3-carboxamide], the figures for the inhibition at 10 µM in assay [1], in assay [2] and in assay [3] were 64.6%, 79.1% and 53.8%, respectively.
Taken in the same sequence, the figures for `Cc1[nH]c2c(c1C(=O)NCCO)CCC/C2=C1/C(=O)Nc2ccc(F)cc21` [I-9, N-(2-hydroxyethyl)-2-methyl-7-[1,2-dihydro-5-fluoro-2-oxo-3H-indol-(Z)-3-ylidene]-4,5,6,7-tetrahydro-1H-indole-3-carboxamide] were 56.1%, 61.9% and 47.5%.
`Cc1[nH]c2c(c1C(=O)N1CCN(C)CC1)CCC/C2=C1/C(=O)Nc2ccc(F)cc21` [I-14, 2-methyl-3-(4-methylpiperazine-1-carbonyl)-7-[1,2-dihydro-5-fluoro-2-oxo-3H-indol-(Z)-3-ylidene]-4,5,6,7-tetrahydro-1H-indole]: the values for the inhibition at 10 µM in assay [1], in assay [2] and in assay [3] were 34.4%, 22.1% and 30.4%, respectively.
`CCN(CC)CC(O)CNC(=O)c1c(C)[nH]c2c1CCC/C2=C1/C(=O)Nc2ccccc21` (centres unmarked) [I-63, N-(3-(diethylamino)-2-hydroxypropyl)-2-methyl-7-[1,2-dihydro-2-oxo-3H-indol-(Z)-3-ylidene]-4,5,6,7-tetrahydro-1H-indole-3-carboxamide]: the inhibition at 10 µM in assay [1] came out at 99%; in assay [3], 100%; in assay [4] it was 79%. The IC50 stood at 3.04 µM in assay [1], 3.15 µM in assay [3] and 2.27 µM in assay [4].
Consider `Cc1[nH]c2c(c1C(=O)NCC(O)CN1CCOCC1)CCC/C2=C1/C(=O)Nc2ccc(F)cc21` (centres unmarked) [I-68, N-(2-hydroxy-3-morpholinopropyl)-2-methyl-7-[1,2-dihydro-5-fluoro-2-oxo-3H-indol-(Z)-3-ylidene]-4,5,6,7-tetrahydro-1H-indole-3-carboxamide], for which the inhibition at 10 µM in assay [4] was 29.1%.
Turning to `Cc1[nH]c2c(c1C(=O)NCC(O)CN1CCCC1)CCC/C2=C1/C(=O)Nc2ccccc21` (centres unmarked) [I-70, N-(2-hydroxy-3-(pyrrolidin-1-yl)propyl)-2-methyl-7-[1,2-dihydro-2-oxo-3H-indol-(Z)-3-ylidene]-4,5,6,7-tetrahydro-1H-indole-3-carboxamide], in assay [4], the inhibition at 10 µM was determined as 87% and the IC50 came to 2.64 µM.
Turning to `Cc1[nH]c2c(c1C(=O)NCC(O)CN1CCCC1)CCC/C2=C1/C(=O)Nc2ccc(F)cc21` (centres unmarked) [I-71, N-(2-hydroxy-3-(pyrrolidin-1-yl)propyl)-2-methyl-7-[1,2-dihydro-5-fluoro-2-oxo-3H-indol-(Z)-3-ylidene]-4,5,6,7-tetrahydro-1H-indole-3-carboxamide], in assay [4], the inhibition at 10 µM came to 87.5% and it took 2.52 µM to reach half-maximal inhibition (IC50).
As for `Cc1[nH]c2c(c1C(=O)NCC(O)CN1CCCCC1)CCC/C2=C1/C(=O)Nc2ccccc21` (centres unmarked) [I-73, N-(2-hydroxy-3-(piperidin-1-yl)propyl)-2-methyl-7-[1,2-dihydro-2-oxo-3H-indol-(Z)-3-ylidene]-4,5,6,7-tetrahydro-1H-indole-3-carboxamide], the inhibition at 10 µM in assay [1] was determined as 88.4%; in assay [2], 98.7%; in assay [3], 59.3%. The figures for the IC50 in assay [1] and in assay [3] were 5.9 µM and 7.36 µM, respectively.
Turning to `Cc1[nH]c2c(c1C(=O)NCC(O)CN1CCCCC1)CCC/C2=C1/C(=O)Nc2ccc(F)cc21` (centres unmarked) [I-74, N-(2-hydroxy-3-(piperidin-1-yl)propyl)-2-methyl-7-[1,2-dihydro-5-fluoro-2-oxo-3H-indol-(Z)-3-ylidene]-4,5,6,7-tetrahydro-1H-indole-3-carboxamide], the inhibition at 10 µM in assay [1] was 98.7%; in assay [2], 99.9%; in assay [3] it was 84.9%. The IC50 was determined as 2.64 µM in assay [1] and 7.22 µM in assay [3].
For the molecule `Cc1[nH]c2c(c1C(=O)NCC(O)CN1CCN(C)CC1)CCC/C2=C1/C(=O)Nc2ccc(F)cc21` (centres unmarked) [I-77, N-[2-hydroxy-3-(4-methylpiperazin-1-yl)propyl]-2-methyl-7-[1,2-dihydro-5-fluoro-2-oxo-3H-indol-(Z)-3-ylidene]-4,5,6,7-tetrahydro-1H-indole-3-carboxamide], in assay [4], the inhibition at 10 µM worked out at 57.2% and the IC50 was 8.15 µM.
